Measurements reported in ChEMBL document CHEMBL4033663, “Design, combinatorial synthesis and biological evaluations of novel 3-amino-1'-((1-aryl-1H-1,2,3-triazol-5-yl)methyl)-2'-oxospiro[benzo[a] pyrano[2,3-c]phenazine-1,3'-indoline]-2-carbonitrile antitumor hybrid molecules” (Eur J Med Chem, 2017).

Key:
[1] = test system: HepG2; experiment: Antiproliferative activity against human HepG2 cells after 48 hrs by MTT assay; assay type: functional, cell-based; settings: HepG2, 48 h
[2] = test system: A549; experiment: Antiproliferative activity against human A549 cells after 48 hrs by MTT assay; assay type: functional, cell-based; settings: A549, 48 h
[3] = test system: MCF7; experiment: Antiproliferative activity against human MCF7 cells after 48 hrs by MTT assay; assay type: functional, cell-based; settings: MCF7, 48 h
[4] = test system: HCT-116; experiment: Antiproliferative activity against human HCT116 cells after 48 hrs by MTT assay; assay type: functional, cell-based; settings: HCT-116, 48 h
[5] = test system: L02; experiment: Antiproliferative activity against human L02 cells after 48 hrs by MTT assay; assay type: cell-based; settings: L02, 48 h
[6] = test system: HUVEC; experiment: Antiproliferative activity against human HUVEC cells after 48 hrs by MTT assay; assay type: cell-based

Row | SMILES | IC50 [1] [µM] | IC50 [2] [µM] | IC50 [3] [µM] | IC50 [4] [µM] | IC50 [5] [µM] | IC50 [6] [µM]
1 | N#CC1=C(N)Oc2c(c3nc4ccccc4nc3c3ccccc23)C12C(=O)N(Cc1cnnn1-c1ccc([N+](=O)[O-])cc1)c1ccccc12 (stereo unspecified) | > 50 | > 50 | > 50 | > 50 | > 50 | > 50
2 | N#CC1=C(N)Oc2c(c3nc4ccccc4nc3c3ccccc23)C12C(=O)N(Cc1cnnn1-c1cccc(S(N)(=O)=O)c1)c1ccccc12 (stereo unspecified) | 21.5 | 44.2 | 42.5 | 11.3 | > 50 | 38.6
3 | N#CC1=C(N)Oc2c(N)cc3nc4ccccc4nc3c2C12C(=O)N(Cc1cnnn1-c1ccc(F)cc1)c1ccccc12 (stereo unspecified) | > 50 | > 50 | > 50 | > 50 | > 50 | > 50
4 | Cc1ccc(C)c(-n2nncc2CN2C(=O)C3(C(C#N)=C(N)Oc4c(N)cc5nc6ccccc6nc5c43)c3ccccc32)c1 (stereo unspecified) | > 50 | > 50 | > 50 | > 50 | > 50 | > 50
5 | CCOc1ccccc1-n1nncc1CN1C(=O)C2(C(C#N)=C(N)Oc3c2c2nc4ccccc4nc2c2ccccc32)c2ccccc21 (stereo unspecified) | > 50 | > 50 | > 50 | > 50 | > 50 | > 50
6 | Cc1cccc(-n2nncc2CN2C(=O)C3(C(C#N)=C(N)Oc4c(N)cc5nc6ccccc6nc5c43)c3ccccc32)c1 (stereo unspecified) | > 50 | 12.3 | > 50 | > 50 | > 50 | > 50
7 | N#CC1=C(N)Oc2c(N)cc3nc4ccccc4nc3c2C12C(=O)N(Cc1cnnn1-c1ccc([N+](=O)[O-])cc1)c1ccccc12 (stereo unspecified) | > 50 | > 50 | > 50 | > 50 | > 50 | > 50
8 | N#CC1=C(N)Oc2c(N)cc3nc4ccccc4nc3c2C12C(=O)N(Cc1cnnn1-c1ccc([N+](=O)[O-])cc1[N+](=O)[O-])c1ccccc12 (stereo unspecified) | 18.4 | > 50 | 20.9 | 23.9 | 22.8 | > 50
9 | N#CC1=C(N)Oc2c(c3nc4ccccc4nc3c3ccccc23)C12C(=O)N(Cc1cnnn1-c1cccc(Br)c1)c1ccccc12 (stereo unspecified) | > 50 | > 50 | > 50 | > 50 | > 50 | > 50
10 | N#CC1=C(N)Oc2c(c3nc4ccccc4nc3c3ccccc23)C12C(=O)N(Cc1cnnn1-c1ccc(S(N)(=O)=O)cc1)c1ccccc12 (stereo unspecified) | 42.2 | > 50 | > 50 | 31.2 | > 50 | > 50
11 | N#CC1=C(N)Oc2c(c3nc4ccccc4nc3c3ccccc23)C12C(=O)N(Cc1cnnn1-c1ccc(F)c(Cl)c1)c1ccccc12 (stereo unspecified) | > 50 | > 50 | > 50 | > 50 | > 50 | > 50
12 | N#CC1=C(N)Oc2c(N)cc3nc4ccccc4nc3c2C12C(=O)N(Cc1cnnn1-c1cccc(Br)c1)c1ccccc12 (stereo unspecified) | > 50 | 18.9 | > 50 | 26.1 | > 50 | > 50
13 | CCc1ccccc1-n1nncc1CN1C(=O)C2(C(C#N)=C(N)Oc3c(N)cc4nc5ccccc5nc4c32)c2ccccc21 (stereo unspecified) | 17.9 | 24.6 | 24.6 | 10.3 | 22.9 | > 50
14 | N#CC1=C(N)Oc2c(c3nc4ccccc4nc3c3ccccc23)C12C(=O)N(Cc1cnnn1-c1ccc(Cl)c(Cl)c1)c1ccccc12 (stereo unspecified) | > 50 | > 50 | > 50 | > 50 | > 50 | > 50
15 | Cc1ccc(-n2nncc2CN2C(=O)C3(C(C#N)=C(N)Oc4c3c3nc5ccccc5nc3c3ccccc43)c3ccccc32)c(C)c1 (stereo unspecified) | > 50 | > 50 | > 50 | > 50 | > 50 | > 50
16 | Cc1ccccc1-n1nncc1CN1C(=O)C2(C(C#N)=C(N)Oc3c2c2nc4ccccc4nc2c2ccccc32)c2ccccc21 (stereo unspecified) | > 50 | > 50 | > 50 | > 50 | > 50 | > 50
17 | Cc1ccc(-n2nncc2CN2C(=O)C3(C(C#N)=C(N)Oc4c(N)cc5nc6ccccc6nc5c43)c3ccccc32)cc1C (stereo unspecified) | > 50 | > 50 | > 50 | > 50 | > 50 | > 50
18 | N#CC1=C(N)Oc2c(c3nc4ccccc4nc3c3ccccc23)C12C(=O)N(Cc1cnnn1-c1ccc(Br)cc1)c1ccccc12 (stereo unspecified) | > 50 | 44.3 | 36.6 | > 50 | > 50 | > 50
19 | N#CC1=C(N)Oc2c(N)cc3nc4ccccc4nc3c2C12C(=O)N(Cc1cnnn1-c1ccc(Cl)cc1Cl)c1ccccc12 (stereo unspecified) | > 50 | > 50 | > 50 | > 50 | > 50 | > 50

Row | SMILES | IC50 [1] [µM] | IC50 [2] [µM] | IC50 [3] [µM] | IC50 [4] [µM] | IC50 [5] [µM] | IC50 [6] [µM]
20 | Cc1cc(C)c(-n2nncc2CN2C(=O)C3(C(C#N)=C(N)Oc4c(N)cc5nc6ccccc6nc5c43)c3ccccc32)c(C)c1 (stereo unspecified) | 48.1 | 12.7 | > 50 | > 50 | > 50 | > 50
21 | CCc1cccc(CC)c1-n1nncc1CN1C(=O)C2(C(C#N)=C(N)Oc3c(N)cc4nc5ccccc5nc4c32)c2ccccc21 (stereo unspecified) | 16.5 | > 50 | > 50 | 37.6 | > 50 | > 50
22 | Cc1ccc(-n2nncc2CN2C(=O)C3(C(C#N)=C(N)Oc4c3c3nc5ccccc5nc3c3ccccc43)c3ccccc32)cc1Cl (stereo unspecified) | > 50 | > 50 | > 50 | > 50 | > 50 | > 50
23 | CCc1cccc(C)c1-n1nncc1CN1C(=O)C2(C(C#N)=C(N)Oc3c(N)cc4nc5ccccc5nc4c32)c2ccccc21 (stereo unspecified) | > 50 | > 50 | > 50 | > 50 | > 50 | > 50
24 | N#CC1=C(N)Oc2c(N)cc3nc4ccccc4nc3c2C12C(=O)N(Cc1cnnn1-c1ccccc1Br)c1ccccc12 (stereo unspecified) | 38 | 27.4 | 30.7 | 12.4 | 29.2 | 34.2
25 | N#CC1=C(N)Oc2c(c3nc4ccccc4nc3c3ccccc23)C12C(=O)N(Cc1cnnn1-c1ccc(F)cc1)c1ccccc12 (stereo unspecified) | > 50 | > 50 | > 50 | > 50 | > 50 | > 50
26 | Cc1ccc(-n2nncc2CN2C(=O)C3(C(C#N)=C(N)Oc4c(N)cc5nc6ccccc6nc5c43)c3ccccc32)cc1Cl (stereo unspecified) | > 50 | 11.8 | > 50 | > 50 | > 50 | > 50
27 | N#CC1=C(N)Oc2c(N)cc3nc4ccccc4nc3c2C12C(=O)N(Cc1cnnn1-c1c(Cl)cc(Cl)cc1Cl)c1ccccc12 (stereo unspecified) | 37.8 | > 50 | 37.8 | 12.1 | > 50 | 18.3
28 | N#CC1=C(N)Oc2c(c3nc4ccccc4nc3c3ccccc23)C12C(=O)N(Cc1cnnn1-c1ccccc1Cl)c1ccccc12 (stereo unspecified) | > 50 | 42.6 | > 50 | > 50 | > 50 | > 50
29 | N#CC1=C(N)Oc2c(N)cc3nc4ccccc4nc3c2C12C(=O)N(Cc1cnnn1-c1ccc(Cl)cc1[N+](=O)[O-])c1ccccc12 (stereo unspecified) | > 50 | > 50 | > 50 | 28.7 | > 50 | > 50
30 | COc1cc(-n2nncc2CN2C(=O)C3(C(C#N)=C(N)Oc4c(N)cc5nc6ccccc6nc5c43)c3ccccc32)c(OC)cc1Cl (stereo unspecified) | > 50 | > 50 | > 50 | > 50 | > 50 | > 50
31 | CC[C@@]1(O)C(=O)OCc2c1cc1n(c2=O)Cc2cc3cc(O)ccc3nc2-1 [HYDROXYCAMPTOTHECIN] | 10.3 | – | 2.8 | 3.2 | 20.4 | 18.2
32 | COc1ccccc1-n1nncc1CN1C(=O)C2(C(C#N)=C(N)Oc3c(N)cc4nc5ccccc5nc4c32)c2ccccc21 (stereo unspecified) | > 50 | 37.5 | 28.9 | > 50 | > 50 | > 50
33 | CC(=O)Nc1ccc(-n2nncc2CN2C(=O)C3(C(C#N)=C(N)Oc4c(N)cc5nc6ccccc6nc5c43)c3ccccc32)cc1 (stereo unspecified) | > 50 | > 50 | > 50 | > 50 | > 50 | > 50
34 | COc1ccc(OC)c(-n2nncc2CN2C(=O)C3(C(C#N)=C(N)Oc4c(N)cc5nc6ccccc6nc5c43)c3ccccc32)c1 (stereo unspecified) | 45.1 | 28.1 | 28.1 | > 50 | > 50 | > 50
35 | CCOc1ccccc1-n1nncc1CN1C(=O)C2(C(C#N)=C(N)Oc3c(N)cc4nc5ccccc5nc4c32)c2ccccc21 (stereo unspecified) | 30.5 | > 50 | > 50 | > 50 | > 50 | > 50
36 | Cc1cccc(-n2nncc2CN2C(=O)C3(C(C#N)=C(N)Oc4c3c3nc5ccccc5nc3c3ccccc43)c3ccccc32)c1 (stereo unspecified) | > 50 | 39.6 | > 50 | > 50 | > 50 | > 50
37 | COc1ccc(-n2nncc2CN2C(=O)C3(C(C#N)=C(N)Oc4c(N)cc5nc6ccccc6nc5c43)c3ccccc32)cc1 (stereo unspecified) | > 50 | > 50 | > 50 | > 50 | > 50 | > 50
